Calls of active or inactive are those of the source.
What was measured:
[1] = Counterscreen for inhibitors of Trypanosoma brucei methionyl tRNA synthetase (MetRS): Luminescence-based cell-based high throughput dose response assay to identify compounds that are cytotoxic to Jurkat human T lymphocyte cells.; format: functional
[2] = molecular target: T1, Methionyl-tRNA synthetase, putative (Trypanosoma brucei brucei, UniProt Q38C91); format: functional, Trypanosoma brucei brucei strain 927/4 GUTat10.1
[3] = molecular target: T1, Methionyl-tRNA synthetase, putative; format: functional, Trypanosoma brucei brucei strain 927/4 GUTat10.1; remark: listed apart in the source
[4] = molecular target: T2, Carboxy-terminal domain RNA polymerase II polypeptide A small phosphatase 1 (Homo sapiens, UniProt Q9GZU7); experiment: inhibitors of CTDSP1, concentration-response testing, biochemical assay, absorbance-based, actives from ultra-high-throughput screening (AID 540297); format: functional
T2 sequence (Q9GZU7 whole entry): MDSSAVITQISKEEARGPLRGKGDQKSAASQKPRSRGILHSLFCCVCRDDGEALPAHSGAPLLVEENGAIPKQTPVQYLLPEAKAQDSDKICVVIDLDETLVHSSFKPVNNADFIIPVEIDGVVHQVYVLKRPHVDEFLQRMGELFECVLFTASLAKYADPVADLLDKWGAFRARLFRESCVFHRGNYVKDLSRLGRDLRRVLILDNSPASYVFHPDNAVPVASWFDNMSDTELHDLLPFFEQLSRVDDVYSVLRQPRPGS

[5] = molecular target: Low molecular weight phosphotyrosine protein phosphatase (Homo sapiens, UniProt P24666); format: functional; details: read-out: IC50_Mean;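 also: Dose-response confirmation assay measuring inhibition of LMPTP enzyme activity by fluorescence intensity read-out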
[6] = molecular target: Luciferin 4-monooxygenase (Photinus pyralis, UniProt P08659); experiment: firefly luciferase enzyme inhibitors, dose response, biochemical, luminescence (AID 1891)
[7] = HEp-2 cell cytotoxicity, dose response, cytotoxicity control for RSV inhibitor project, HTS (AID 2410); format: functional; details: human respiratory syncytial virus
[8] = Luminescence Cell-Based Dose Confirmation HTS to Identify Inhibitors of Platelet Dense Granule Release. [Related pubchem assays: 1663 (Primary HTS), 1678 (Summary of Project)]; format: functional
[9] = molecular target: Tyrosine-protein phosphatase non-receptor type 11 (Homo sapiens, UniProt Q06124); experiment: SHP2 phosphatase inhibition, dose response, selectivity assay for STEP inhibitor project, biochemical (AID 602367); format: functional; details: read-out: IC50_Mean
[10] = molecular target: Tyrosine-protein phosphatase non-receptor type 5 (Homo sapiens, UniProt P54829); experiment: STEP phosphatase inhibitors, confirmation, biochemical, fluorescence intensity, uHTS hits (AID 602372); format: functional; details: read-out: IC50_Mean
[11] = molecular target: Dual specificity protein phosphatase 3 (Homo sapiens, UniProt P51452); experiment: VHR phosphatase inhibition, dose response, selectivity assay for STEP inhibitor project, biochemical (AID 602374); format: functional; details: read-out: IC50_Mean
[12] = molecular target: T3, Sentrin-specific protease 8 (Homo sapiens, UniProt Q96LD8); format: functional
T3 sequence (Q96LD8 whole entry): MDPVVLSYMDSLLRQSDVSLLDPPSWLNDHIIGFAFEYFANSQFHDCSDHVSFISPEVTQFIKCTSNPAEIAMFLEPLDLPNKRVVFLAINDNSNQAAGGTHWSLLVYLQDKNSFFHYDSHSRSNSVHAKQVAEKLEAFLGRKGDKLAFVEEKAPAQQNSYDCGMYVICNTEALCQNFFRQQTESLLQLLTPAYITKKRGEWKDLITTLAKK

[13] = molecular target: T3, Sentrin-specific protease 8; format: functional; remark: listed apart in the source
Caspase-3 = molecular target: T4, Caspase-3 (Homo sapiens, UniProt P42574); experiment: Dose-response confirmation of uHTS inhibitor hits of Sentrin-Specific Protease 8 in a Caspase-3 Fluorescence assay.; format: functional
T4 sequence (P42574 whole entry): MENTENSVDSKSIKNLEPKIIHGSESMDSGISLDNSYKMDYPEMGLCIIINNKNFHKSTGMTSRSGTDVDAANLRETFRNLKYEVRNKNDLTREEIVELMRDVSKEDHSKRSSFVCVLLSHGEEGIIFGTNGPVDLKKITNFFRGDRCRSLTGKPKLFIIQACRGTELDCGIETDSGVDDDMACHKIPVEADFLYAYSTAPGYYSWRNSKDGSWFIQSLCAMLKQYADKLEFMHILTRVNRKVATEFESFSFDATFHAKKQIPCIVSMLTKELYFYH

[14] = Shn3 3'UTR reporter inhibitors, dose response, cell-based, Clone20 osteoblasts, firefly luciferase, cherry-picked (AID 624132); format: functional;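 also: firefly luciferase luminescence from reporter carrying the Shn3 3'UTR in osteoblasts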
[15] = HepG2 cell cytotoxicity, dose response, cytotoxicity control, plate reader, cherry-pick, antagonist series (AID 743416); format: functional, cell-based
[16] = molecular target: T5, Heat shock factor protein 1 (Mus musculus, UniProt P38532); experiment: inhibition of MG132-induced HSE-luciferase signal, confirmation, cell-based, NIH3T3, luminescence, dose retest (AID 2382); format: functional;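 also: NIH3T3 fibroblasts with HSF1-driven luciferase reporter stressed by proteasome inhibitor MG132; luminescence from HSF1-driven luciferase expression after 8 hours of MG132 stress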
T5 sequence (P38532 whole entry): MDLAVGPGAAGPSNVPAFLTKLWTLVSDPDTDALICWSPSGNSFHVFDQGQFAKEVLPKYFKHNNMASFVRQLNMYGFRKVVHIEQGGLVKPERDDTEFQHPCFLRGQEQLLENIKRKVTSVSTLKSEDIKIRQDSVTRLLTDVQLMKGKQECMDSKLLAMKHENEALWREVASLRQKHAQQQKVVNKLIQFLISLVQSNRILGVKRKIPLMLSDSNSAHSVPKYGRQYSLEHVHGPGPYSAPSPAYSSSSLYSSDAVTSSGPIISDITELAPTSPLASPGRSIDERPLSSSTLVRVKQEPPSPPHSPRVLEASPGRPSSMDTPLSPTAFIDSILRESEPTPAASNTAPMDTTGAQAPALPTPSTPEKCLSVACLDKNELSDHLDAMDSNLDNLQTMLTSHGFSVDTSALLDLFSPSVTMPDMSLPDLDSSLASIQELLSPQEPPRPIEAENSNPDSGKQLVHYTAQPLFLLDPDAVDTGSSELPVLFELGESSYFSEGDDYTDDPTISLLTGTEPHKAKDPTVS

[17] = MC4R antagonists, dose response, counter-screen for LGR2 antagonist project, cell-based, plate reader, cherry pick (AID 743444); format: functional;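 also: transfected HEK 293 cells stimulated with alpha-MSH peptide; potency of inhibitors of the alpha-MSH evoked signal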
[18] = control 3'UTR Renilla luciferase suppression, dose response, counter-screen for Shn3 inhibitor project, cell-based, Clone20-Shn3RL, cherry-picked (AID 624133); format: functional
[19] = HEK293 cell cytotoxicity, dose response, cytotoxicity control, plate reader, cherry-picked samples (AID 743446); format: functional, cell-based
Interleukin-8 [20] = molecular target: T6, Interleukin-8 (Homo sapiens, UniProt P10145); experiment: Dose Response confirmation of uHTS small molecule hits for cystic fibrosis induced NFkb Inhibitors in a PAF-induced IL8 counterscreen.; format: functional; details: read-out: IC50_Mean
[21] = A549 cell cytotoxicity, dose response, cytotoxicity control, plate reader, cherry-pick, antagonist series (AID 743412); format: functional, cell-based
Interleukin-8 [22] = molecular target: T6, Interleukin-8; experiment: Dose Response confirmation of uHTS small molecule hits for cystic fibrosis induced NFkb Inhibitors in a TNFa-induced IL8 counterscreen.; format: functional; details: read-out: IC50_Mean
[23] = LGR2 antagonists, dose response, cell-based, HEK293, CRE-luciferase reporter, cherry pick, set 2 (AID 743343); format: functional;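 also: transfected cells were stimulated with diluted bursicon conditioned medium after compound addition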
Paired box protein Pax-8 = Paired box protein Pax-8 (Homo sapiens, UniProt Q06710); experiment: inhibitors of PAX8-driven TPO luciferase reporter, dose response, RMG-I cells, cherry-pick (AID 687027); format: functional, cell-based;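 also: luciferase reporter driven by Pax8 target thyroperoxidase promoter measured by SteadyGlo luminescence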
[24] = molecular target: T7, Microphthalmia-associated transcription factor (Homo sapiens, UniProt O75030); experiment: TRPM1 promoter luciferase signal decrease, dose response, MITF inhibitor project, cell-based, SK-MEL-5, cherry-picked, set 3 (AID 493073); format: functional
T7 sequence (O75030 whole entry): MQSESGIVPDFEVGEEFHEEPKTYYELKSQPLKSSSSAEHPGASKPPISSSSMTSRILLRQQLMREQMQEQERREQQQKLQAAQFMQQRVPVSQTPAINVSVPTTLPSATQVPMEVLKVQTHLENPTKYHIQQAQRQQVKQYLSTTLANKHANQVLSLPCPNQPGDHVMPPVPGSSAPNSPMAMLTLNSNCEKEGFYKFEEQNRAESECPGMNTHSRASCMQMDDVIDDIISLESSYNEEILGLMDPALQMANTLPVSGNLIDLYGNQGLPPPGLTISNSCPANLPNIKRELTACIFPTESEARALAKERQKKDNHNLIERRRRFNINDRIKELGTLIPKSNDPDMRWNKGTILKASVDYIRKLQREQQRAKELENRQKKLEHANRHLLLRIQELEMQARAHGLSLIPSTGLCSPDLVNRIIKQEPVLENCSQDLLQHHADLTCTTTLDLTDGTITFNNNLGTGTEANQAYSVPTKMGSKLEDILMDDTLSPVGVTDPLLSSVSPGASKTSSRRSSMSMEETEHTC

[25] = HepG2 cell cytotoxicity, dose response, cytotoxicity control for Shn3 inhibitor project, CellTiter-Glo, cherry-picked (AID 624134); format: functional, cell-based

T6 sequence (P10145 whole entry): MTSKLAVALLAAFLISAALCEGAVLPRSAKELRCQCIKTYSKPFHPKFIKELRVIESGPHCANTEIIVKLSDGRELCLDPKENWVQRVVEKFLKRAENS
T1 sequence (Q38C91 whole entry): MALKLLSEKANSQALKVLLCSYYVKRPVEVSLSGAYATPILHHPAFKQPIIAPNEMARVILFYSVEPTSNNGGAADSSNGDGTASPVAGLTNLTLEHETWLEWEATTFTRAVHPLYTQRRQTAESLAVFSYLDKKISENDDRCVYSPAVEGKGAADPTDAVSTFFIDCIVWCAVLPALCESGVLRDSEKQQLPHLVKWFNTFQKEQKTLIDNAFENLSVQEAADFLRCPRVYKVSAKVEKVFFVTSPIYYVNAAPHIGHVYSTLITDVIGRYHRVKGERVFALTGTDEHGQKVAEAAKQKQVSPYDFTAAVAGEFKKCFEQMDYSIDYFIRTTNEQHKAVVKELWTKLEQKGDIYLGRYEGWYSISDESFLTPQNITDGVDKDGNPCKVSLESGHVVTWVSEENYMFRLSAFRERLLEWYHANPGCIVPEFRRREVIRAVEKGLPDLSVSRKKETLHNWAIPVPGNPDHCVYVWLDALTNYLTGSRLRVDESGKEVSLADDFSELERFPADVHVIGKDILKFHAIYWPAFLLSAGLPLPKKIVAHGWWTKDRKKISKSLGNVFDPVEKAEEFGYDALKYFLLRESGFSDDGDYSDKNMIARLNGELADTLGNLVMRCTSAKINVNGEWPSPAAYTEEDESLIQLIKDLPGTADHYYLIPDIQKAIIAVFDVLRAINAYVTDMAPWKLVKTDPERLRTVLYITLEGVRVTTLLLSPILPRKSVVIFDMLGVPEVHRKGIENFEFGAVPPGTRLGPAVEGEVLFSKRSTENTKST
Sequence of Low molecular weight phosphotyrosine protein phosphatase (P24666 whole entry): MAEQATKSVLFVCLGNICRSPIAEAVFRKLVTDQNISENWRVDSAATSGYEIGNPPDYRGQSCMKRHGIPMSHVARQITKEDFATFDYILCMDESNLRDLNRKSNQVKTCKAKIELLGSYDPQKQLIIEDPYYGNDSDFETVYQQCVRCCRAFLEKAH
Sequence of Paired box protein Pax-8 (Q06710 whole entry): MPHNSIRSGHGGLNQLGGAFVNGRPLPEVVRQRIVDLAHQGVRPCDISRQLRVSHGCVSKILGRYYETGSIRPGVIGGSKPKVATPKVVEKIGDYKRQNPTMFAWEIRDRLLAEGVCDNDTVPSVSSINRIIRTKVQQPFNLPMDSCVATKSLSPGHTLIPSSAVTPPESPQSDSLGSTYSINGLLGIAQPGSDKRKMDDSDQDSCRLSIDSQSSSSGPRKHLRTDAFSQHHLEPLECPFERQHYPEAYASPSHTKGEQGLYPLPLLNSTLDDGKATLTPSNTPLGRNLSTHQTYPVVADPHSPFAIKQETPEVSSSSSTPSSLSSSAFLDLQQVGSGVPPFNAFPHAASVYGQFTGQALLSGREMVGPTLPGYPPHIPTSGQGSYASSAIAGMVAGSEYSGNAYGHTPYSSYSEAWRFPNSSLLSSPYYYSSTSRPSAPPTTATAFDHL
Sequence of Tyrosine-protein phosphatase non-receptor type 11 (Q06124 whole entry): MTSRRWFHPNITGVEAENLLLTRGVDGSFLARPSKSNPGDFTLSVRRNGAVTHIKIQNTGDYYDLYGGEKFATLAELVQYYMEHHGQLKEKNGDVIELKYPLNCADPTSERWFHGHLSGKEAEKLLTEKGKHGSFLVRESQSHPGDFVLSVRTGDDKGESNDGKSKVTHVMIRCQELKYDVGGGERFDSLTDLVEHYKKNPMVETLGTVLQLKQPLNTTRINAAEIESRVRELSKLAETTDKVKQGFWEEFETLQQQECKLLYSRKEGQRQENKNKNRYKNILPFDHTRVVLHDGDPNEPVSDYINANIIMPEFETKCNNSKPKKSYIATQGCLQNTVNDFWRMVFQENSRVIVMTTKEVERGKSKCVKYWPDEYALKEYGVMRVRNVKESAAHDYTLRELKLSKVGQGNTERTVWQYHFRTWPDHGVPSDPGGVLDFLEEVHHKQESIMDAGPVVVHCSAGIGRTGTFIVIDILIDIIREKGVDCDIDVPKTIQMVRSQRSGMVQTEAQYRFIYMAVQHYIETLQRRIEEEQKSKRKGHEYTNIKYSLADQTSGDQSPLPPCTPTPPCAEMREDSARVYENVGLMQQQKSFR
Sequence of Luciferin 4-monooxygenase (P08659 whole entry): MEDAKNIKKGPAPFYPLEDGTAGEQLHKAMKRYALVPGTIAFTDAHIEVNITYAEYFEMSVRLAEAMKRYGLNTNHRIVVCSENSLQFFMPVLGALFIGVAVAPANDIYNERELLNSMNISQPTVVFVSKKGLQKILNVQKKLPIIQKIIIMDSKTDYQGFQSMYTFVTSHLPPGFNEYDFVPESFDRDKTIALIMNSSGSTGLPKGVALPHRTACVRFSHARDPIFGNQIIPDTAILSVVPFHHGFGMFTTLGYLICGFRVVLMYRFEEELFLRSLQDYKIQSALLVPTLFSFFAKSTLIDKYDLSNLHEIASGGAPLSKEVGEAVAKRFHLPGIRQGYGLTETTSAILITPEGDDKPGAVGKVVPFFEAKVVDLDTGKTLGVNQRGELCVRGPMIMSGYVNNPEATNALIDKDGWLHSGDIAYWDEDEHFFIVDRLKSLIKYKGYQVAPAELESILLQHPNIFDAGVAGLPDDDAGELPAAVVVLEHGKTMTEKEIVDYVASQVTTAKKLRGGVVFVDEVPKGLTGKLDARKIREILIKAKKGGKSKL
Sequence of Tyrosine-protein phosphatase non-receptor type 5 (P54829 whole entry): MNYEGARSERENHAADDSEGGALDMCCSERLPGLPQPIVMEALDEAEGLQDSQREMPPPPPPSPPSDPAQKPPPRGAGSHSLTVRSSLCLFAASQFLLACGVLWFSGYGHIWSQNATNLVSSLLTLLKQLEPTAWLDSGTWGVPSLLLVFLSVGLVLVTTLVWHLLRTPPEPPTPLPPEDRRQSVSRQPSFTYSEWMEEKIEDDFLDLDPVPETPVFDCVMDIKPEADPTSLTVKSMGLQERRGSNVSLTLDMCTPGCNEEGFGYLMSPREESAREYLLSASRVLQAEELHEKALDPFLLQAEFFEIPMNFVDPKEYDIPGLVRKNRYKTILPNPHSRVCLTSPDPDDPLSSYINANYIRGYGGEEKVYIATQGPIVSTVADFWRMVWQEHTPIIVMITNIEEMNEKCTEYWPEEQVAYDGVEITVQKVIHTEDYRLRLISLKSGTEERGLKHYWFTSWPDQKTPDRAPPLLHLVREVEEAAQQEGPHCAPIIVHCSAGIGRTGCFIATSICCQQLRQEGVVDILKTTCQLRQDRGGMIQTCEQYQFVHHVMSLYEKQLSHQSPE
Sequence of Dual specificity protein phosphatase 3 (P51452 whole entry): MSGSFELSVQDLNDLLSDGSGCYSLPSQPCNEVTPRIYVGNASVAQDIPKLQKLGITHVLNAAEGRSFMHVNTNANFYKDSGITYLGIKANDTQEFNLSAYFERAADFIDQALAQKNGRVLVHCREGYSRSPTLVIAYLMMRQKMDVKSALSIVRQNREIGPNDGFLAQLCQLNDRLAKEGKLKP

COc1ccc(CNC(=O)CSc2n[nH]c3c4cc(OC)ccc4nc-3n2)cc1
IC50 [1]: 83.3 µM (inactive) | IC50 [2]: 76.2 µM (inactive) | IC50 [3]: 71.6 µM (inactive) | IC50 [4]: 8.05 µM (active)

Cc1cccc2nc(-c3ccccc3)nc(N[C@@H](CO)c3ccccc3)c12
IC50 [5]: 17 µM (active) | EC50 [6]: > 112 µM (not active) | CC50 [7]: 19 µM (active) | EC50 [8]: > 112 µM (not active)

CCN1CCN(C(=S)c2ccc(OCC(=O)NCc3ccccc3)cc2)CC1
IC50 [9]: 3.35 µM (active) | IC50 [10]: 45.3 µM (inactive) | IC50 [11]: 1.92 µM (active)

COc1cccc(-c2cc(C(=O)N3CCc4ccccc4C3)no2)c1
IC50 [12]: 46 µM (active) | IC50 [13]: 7.7 µM (active) | IC50 (Caspase-3): 32 µM (active)

O=C(c1nnsc1S(=O)(=O)c1ccc(Cl)cc1)N1CCOCC1
AC50 [14]: 7.74 µM (active) | AC50 [15]: 15.3 µM (active) | EC50 [16]: > 195 µM (not active) | AC50 [17]: 5.75 µM (active) | AC50 [18]: 12.2 µM (active) | AC50 [19]: 15.3 µM (active) | IC50 (Interleukin-8 [20]): 1.25 µM (active) | AC50 [21]: 13.9 µM (active) | IC50 (Interleukin-8 [22]): 1.19 µM (active) | AC50 [23]: 4.76 µM (active) | AC50 (Paired box protein Pax-8): 6.05 µM (active) | AC50 [24]: 9.51 µM (active) | AC50 [25]: 31.7 µM (active)
